Measured values published in ChEMBL document CHEMBL1201862, “PubChem BioAssay data set” (2004).
Activity calls are given as the source filed them.

Experiments:
[1] = molecular target: Kappa-type opioid receptor (Homo sapiens, UniProt P41145); assay: Late-stage fluorescence-based cell-based dose response assay for antagonists of kappa opioid receptor 1 (OPRK1).; assay type: functional
Mu-type opioid receptor = Mu-type opioid receptor (Homo sapiens, UniProt P35372); assay: Late-stage results from the probe development effort to identify antagonists of OPRK1: luminescence-based cell-based dose response OPRM1 counterscreen, Set 2.; assay type: functional
Chain of Mu-type opioid receptor (P35372 whole entry): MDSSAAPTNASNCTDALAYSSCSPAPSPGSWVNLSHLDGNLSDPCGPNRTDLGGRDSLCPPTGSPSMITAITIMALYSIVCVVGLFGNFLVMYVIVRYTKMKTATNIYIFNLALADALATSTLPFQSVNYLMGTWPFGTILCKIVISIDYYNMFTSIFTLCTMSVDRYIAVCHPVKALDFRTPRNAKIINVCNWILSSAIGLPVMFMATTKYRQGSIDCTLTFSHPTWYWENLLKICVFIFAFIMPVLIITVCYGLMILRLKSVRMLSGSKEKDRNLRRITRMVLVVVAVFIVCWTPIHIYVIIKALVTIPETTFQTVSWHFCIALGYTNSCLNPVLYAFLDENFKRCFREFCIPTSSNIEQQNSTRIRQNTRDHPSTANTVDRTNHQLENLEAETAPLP

[2] = molecular target: Delta-type opioid receptor (Homo sapiens, UniProt P41143); assay: Late-stage results from the probe development effort to identify antagonists of OPRK1: fluorescence-based cell-based dose response OPRD1 counterscreen, Set 2.; assay type: functional
Chain of Delta-type opioid receptor (P41143 whole entry): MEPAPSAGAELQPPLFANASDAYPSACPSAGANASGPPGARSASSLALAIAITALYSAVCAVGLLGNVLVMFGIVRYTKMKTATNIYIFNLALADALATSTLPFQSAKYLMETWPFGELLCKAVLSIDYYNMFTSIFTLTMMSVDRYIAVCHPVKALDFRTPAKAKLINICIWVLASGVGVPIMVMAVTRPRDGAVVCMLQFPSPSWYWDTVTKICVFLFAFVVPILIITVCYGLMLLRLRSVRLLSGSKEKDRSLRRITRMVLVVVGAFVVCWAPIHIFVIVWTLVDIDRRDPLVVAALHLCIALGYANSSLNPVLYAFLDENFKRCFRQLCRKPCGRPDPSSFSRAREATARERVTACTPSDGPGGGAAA

[3] = molecular target: Sphingosine 1-phosphate receptor 1 (Homo sapiens, UniProt P21453); assay: Late-stage counterscreen for antagonists of kappa opioid receptor 1 (OPRK1): fluorescence-based cell-based dose response assay to identify antagonists of Sphingosine 1-Phosphate Receptor 1 (S1P1).; assay type: functional
Chain of Sphingosine 1-phosphate receptor 1 (P21453 whole entry): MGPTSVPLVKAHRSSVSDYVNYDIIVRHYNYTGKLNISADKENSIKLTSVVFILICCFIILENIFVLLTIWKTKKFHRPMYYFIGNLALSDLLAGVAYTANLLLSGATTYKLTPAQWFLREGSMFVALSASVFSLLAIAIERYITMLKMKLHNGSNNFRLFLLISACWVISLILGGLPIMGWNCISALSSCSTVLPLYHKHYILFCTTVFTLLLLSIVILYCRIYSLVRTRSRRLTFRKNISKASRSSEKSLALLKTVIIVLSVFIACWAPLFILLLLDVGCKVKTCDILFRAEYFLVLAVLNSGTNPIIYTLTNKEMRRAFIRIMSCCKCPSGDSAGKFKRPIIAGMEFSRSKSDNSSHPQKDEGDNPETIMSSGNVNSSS

Nonstructural protein 1 = Nonstructural protein 1 (Influenza A virus, UniProt Q194T2); assay type: functional, Influenza A virus (A/California/07/2009(H1N1))
Chain of Nonstructural protein 1 (Q194T2 whole entry): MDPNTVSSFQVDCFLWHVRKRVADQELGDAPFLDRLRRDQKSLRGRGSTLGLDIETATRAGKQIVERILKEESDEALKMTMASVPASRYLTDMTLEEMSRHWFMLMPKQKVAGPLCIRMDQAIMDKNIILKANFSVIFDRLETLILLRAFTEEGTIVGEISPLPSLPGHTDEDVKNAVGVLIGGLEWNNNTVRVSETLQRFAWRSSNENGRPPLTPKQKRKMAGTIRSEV

[4] = molecular target: T1, Matrix metalloproteinase-14 (Homo sapiens, UniProt P50281); assay: Dose Response confirmation of uHTS hits for a small molecule inhibitors of MT1-MMP activation in a fluorescence assay set 2.; assay type: functional
Vero = assay: viability loss in Vero cells – cell-based, plate reader, cherry-pick samples, cytotoxicity control, dose response (AID 687020); assay type: functional; settings: Chlorocebus sabaeus
A549 = assay: viability loss in A549 cells – cell-based, plate reader, cherry-pick samples, cytotoxicity control, dose response (AID 687028); assay type: functional; settings: Homo sapiens
Paired box protein Pax-8 = Paired box protein Pax-8 (Homo sapiens, UniProt Q06710); assay: PAX8 transcriptional activity inhibition in RMG-I – RMG-I cells, luciferase, cherry-pick, dose response (AID 687027); assay type: functional, cell-based;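 also: luciferase reporter driven by Pax8 target thyroperoxidase promoter measured by SteadyGlo luminescence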
Chain of Paired box protein Pax-8 (Q06710 whole entry): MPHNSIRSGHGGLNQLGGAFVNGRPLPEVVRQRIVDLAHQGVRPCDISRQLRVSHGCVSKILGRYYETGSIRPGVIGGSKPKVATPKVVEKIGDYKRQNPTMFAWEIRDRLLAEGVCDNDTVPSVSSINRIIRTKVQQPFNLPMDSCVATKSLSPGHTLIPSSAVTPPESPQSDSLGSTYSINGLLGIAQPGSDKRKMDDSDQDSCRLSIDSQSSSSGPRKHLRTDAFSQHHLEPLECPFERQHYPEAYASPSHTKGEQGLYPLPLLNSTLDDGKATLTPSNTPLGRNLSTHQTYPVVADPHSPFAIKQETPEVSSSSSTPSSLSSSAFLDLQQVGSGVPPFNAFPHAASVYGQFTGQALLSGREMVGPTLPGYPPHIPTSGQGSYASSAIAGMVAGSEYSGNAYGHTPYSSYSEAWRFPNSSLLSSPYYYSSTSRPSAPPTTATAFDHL

[5] = CTGF mRNA reduction in DLD1 cells – cell-based, DLD1 colon cancer, RT-qPCR, cherry-pick, dose response (AID 1053122); assay type: functional; settings: Cancer cell lines
[6] = Luminescence Cell-Based Dose Response to Identify Activators of 5'UTR Stem-Loop Driven Prion Protein mRNA Translation in H4-C Neuroglioblastoma Cells. [Related pubchem assays: 1829 (Project Summary), 1814 (Primary HTS)]; assay type: functional
[7] = Luminescence Cell-Based Dose Response HTS to Identify Activators of Luciferase Translation or Activity in H4 […] Cells. [Related pubchem assays: 1829 (Project Summary), 1814 (Primary HTS)]; assay type: functional
H4 = assay: Luminescence Cell-Based Dose Response HTS to Identify Activators of 5'UTR Stem-Loop Driven Prion Protein mRNA Translation in H4 Neuroglioblastoma Cells. [Related pubchem assays: 1829 (Project Summary), 1814 (Primary HTS)]; assay type: functional; settings: Homo sapiens
[8] = Luminescence Cell-Based Dose Response to Identify Activators of Luciferase Translation or Activity in H4-C Neuroglioblastoma Cells. [Related pubchem assays: 1829 (Project Summary), 1814 (Primary HTS)]; assay type: functional
[9] = molecular target: Peroxisome proliferator-activated receptor gamma/Nuclear receptor corepressor 2 (Homo sapiens, UniProt P37231+Q9Y618); assay: Counterscreen for NR2E3 inverse agonists: TR-FRET-based biochemical high throughput dose response assay to identify inverse agonists of the interaction between peroxisome proliferator-activated receptor gamma (PPARg) and nuclear receptor co-repressor 2 (NCOR2).; assay type: functional
[10] = molecular target: Photoreceptor-specific nuclear receptor (Homo sapiens, UniProt Q9Y5X4); assay: ligands suppressing NR2E3 nuclear receptor activity – biochemical, TR-FRET, dose response (AID 463256); assay type: functional
Chain of Photoreceptor-specific nuclear receptor (Q9Y5X4 whole entry): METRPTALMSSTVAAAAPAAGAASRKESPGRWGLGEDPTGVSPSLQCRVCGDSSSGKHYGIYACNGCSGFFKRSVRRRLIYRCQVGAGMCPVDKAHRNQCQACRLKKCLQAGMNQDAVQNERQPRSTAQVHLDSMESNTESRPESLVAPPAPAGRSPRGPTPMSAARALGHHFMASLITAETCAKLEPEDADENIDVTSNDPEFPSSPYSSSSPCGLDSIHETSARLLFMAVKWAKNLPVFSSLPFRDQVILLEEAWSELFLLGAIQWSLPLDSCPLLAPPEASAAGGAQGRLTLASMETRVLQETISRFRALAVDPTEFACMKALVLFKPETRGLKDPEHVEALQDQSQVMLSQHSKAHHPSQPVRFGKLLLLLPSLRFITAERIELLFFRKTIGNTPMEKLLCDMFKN

[11] = Luminescence Cell-Based Dose Confirmation to Identify Activators of 5'UTR Stem-Loop Driven Alpha-Synuclein mRNA Translation in H4 Neuroglioblastoma Cells. [Related pubchem assays: 1829 (Project Summary), 1814 (Primary HTS)]; assay type: functional
[12] = molecular target: Fructose-bisphosphate aldolase (Mycobacterium tuberculosis, UniProt P9WQA3); assay: Fluorescence-based biochemical high throughput dose response assay for inhibitors of the fructose-bisphosphate aldolase (FBA) of M. tuberculosis.; assay type: functional
Chain of Fructose-bisphosphate aldolase (P9WQA3 whole entry): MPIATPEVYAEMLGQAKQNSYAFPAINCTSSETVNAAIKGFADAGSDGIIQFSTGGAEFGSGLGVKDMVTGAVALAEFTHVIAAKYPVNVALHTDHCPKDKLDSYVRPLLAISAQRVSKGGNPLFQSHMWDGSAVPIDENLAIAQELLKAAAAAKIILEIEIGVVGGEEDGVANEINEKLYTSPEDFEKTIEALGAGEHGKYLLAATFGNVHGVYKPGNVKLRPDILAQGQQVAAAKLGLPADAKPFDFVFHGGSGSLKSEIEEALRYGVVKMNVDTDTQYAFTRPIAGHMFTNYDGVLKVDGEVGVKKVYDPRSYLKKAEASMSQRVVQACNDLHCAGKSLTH

Caspase-6 = molecular target: T2, Caspase-6 (Homo sapiens, UniProt P55212); assay: inhibition of CASP6 peptide cleavage – biochemical, VEID-R110 fluorescence, dry powder retest, dose response (AID 743332)
T2 sequence (P55212 whole entry): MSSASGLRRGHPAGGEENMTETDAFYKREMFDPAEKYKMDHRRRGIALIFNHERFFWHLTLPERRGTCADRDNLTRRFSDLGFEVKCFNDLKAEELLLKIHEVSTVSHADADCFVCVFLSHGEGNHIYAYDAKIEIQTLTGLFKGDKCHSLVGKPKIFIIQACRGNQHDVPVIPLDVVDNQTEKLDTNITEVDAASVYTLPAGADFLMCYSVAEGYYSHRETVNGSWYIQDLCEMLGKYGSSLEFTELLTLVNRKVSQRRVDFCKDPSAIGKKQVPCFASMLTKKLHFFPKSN

[13] = disruptors of Keap1/Nrf2 protein interaction – biochemical, fluorescence polarization, dry powder, set 3, dose response (AID 651806)
[14] = molecular target: T1, Matrix metalloproteinase-14; assay: Dose Response confirmation of uHTS hits for a small molecule inhibitors of MT1-MMP activation in a fluorescence assay set 1.; assay type: functional
[15] = viability loss in CEM21 cells – cell-based, plate reader, dry powder, cytotoxicity control, dose response (AID 687026); assay type: functional
Kallikrein-7 = Kallikrein-7 (Homo sapiens, UniProt P49862); assay: Fluorescence Intensity-based biochemical primary high throughput dose response assay to identify activators of kallikrein-7 (K7) zymogen.
Chain of Kallikrein-7 (P49862 whole entry): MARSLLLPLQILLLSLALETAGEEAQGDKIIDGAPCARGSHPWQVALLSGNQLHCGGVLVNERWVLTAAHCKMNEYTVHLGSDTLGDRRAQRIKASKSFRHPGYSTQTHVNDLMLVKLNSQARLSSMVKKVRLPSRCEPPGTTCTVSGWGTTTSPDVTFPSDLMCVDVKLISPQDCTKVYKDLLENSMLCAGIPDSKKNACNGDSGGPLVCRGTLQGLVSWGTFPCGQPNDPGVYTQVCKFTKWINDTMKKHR

[16] = optical artefact potency, substrate without enzyme – biochemical, fluorescence intensity, triplicate, artefact control for kallikrein-7 zymogen activator project, dose response (AID 720493)
[17] = TNFa-induced NF-kB reporter signal decrease – HEK293 LMP1 reporter cells, dry powder, set 2, selectivity assay for EBV LMP1 NF-kB inhibitor project, dose response (AID 624369); assay type: functional
[18] = OVCAR-3 cell viability loss – plate reader, dry powder samples, PAX8 inhibitor project, dose response (AID 743044); assay type: functional, cell-based
[19] = OVCAR8 cell viability loss – plate reader, dry powder samples, PAX8 project, dose response (AID 743197); assay type: functional, cell-based; settings: OVCAR-8
[20] = inhibitors of EBV LMP1 NF-kappaB signaling – cell-based, luciferase reporter, luminescence, dry powder, set 2, dose response (AID 624376); assay type: functional
[21] = LMP1-induced NF-kB luciferase signal inhibition – cell-based, EBV LMP1, dry powder, set 2, dose response (AID 624361); assay type: functional
[22] = molecular target: Potassium channel subfamily K member 9 (Homo sapiens, UniProt Q9NPC2); assay: KCNK9 flux blockade, concentration-response – cell-based, FluxOR thallium flux, selectivity assay for TASK1 inhibitor project, SAR follow-up (AID 652211); assay type: functional;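 also: potency is for inhibitors of the channel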
Chain of Potassium channel subfamily K member 9 (Q9NPC2 whole entry): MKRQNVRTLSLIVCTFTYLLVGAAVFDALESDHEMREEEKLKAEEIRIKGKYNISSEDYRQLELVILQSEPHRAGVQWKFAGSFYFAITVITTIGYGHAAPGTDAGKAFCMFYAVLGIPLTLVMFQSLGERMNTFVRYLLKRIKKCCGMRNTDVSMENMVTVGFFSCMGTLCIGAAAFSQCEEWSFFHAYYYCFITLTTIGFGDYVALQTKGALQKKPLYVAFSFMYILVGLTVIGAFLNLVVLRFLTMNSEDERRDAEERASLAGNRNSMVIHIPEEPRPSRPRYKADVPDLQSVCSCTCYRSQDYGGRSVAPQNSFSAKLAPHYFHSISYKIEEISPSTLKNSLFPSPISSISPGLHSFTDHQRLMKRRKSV

[23] = molecular target: Potassium channel subfamily K member 3 (Homo sapiens, UniProt O14649); assay: inhibition of human KCNK3 channel flux – CHO cells, FluxOR thallium flux, SAR follow-up (AID 652212); assay type: functional
Chain of Potassium channel subfamily K member 3 (O14649 whole entry): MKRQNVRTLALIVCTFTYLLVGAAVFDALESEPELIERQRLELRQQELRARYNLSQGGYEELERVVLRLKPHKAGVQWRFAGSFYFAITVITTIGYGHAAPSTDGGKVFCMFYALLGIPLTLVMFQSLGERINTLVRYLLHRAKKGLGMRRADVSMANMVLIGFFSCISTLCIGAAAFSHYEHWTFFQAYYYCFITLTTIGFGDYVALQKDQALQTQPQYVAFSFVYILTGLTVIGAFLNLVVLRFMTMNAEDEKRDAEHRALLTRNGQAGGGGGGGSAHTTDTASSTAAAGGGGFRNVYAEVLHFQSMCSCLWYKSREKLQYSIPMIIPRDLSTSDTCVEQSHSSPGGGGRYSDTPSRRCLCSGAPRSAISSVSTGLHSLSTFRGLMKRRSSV

[24] = molecular target: Endoplasmic reticulum aminopeptidase 1 (Homo sapiens, UniProt Q9NZ08); assay: inhibition of human ERAP1 enzyme activity – biochemical, cherry-pick, set 2, plate reader, dose response (AID 743314)
Chain of Endoplasmic reticulum aminopeptidase 1 (Q9NZ08 whole entry): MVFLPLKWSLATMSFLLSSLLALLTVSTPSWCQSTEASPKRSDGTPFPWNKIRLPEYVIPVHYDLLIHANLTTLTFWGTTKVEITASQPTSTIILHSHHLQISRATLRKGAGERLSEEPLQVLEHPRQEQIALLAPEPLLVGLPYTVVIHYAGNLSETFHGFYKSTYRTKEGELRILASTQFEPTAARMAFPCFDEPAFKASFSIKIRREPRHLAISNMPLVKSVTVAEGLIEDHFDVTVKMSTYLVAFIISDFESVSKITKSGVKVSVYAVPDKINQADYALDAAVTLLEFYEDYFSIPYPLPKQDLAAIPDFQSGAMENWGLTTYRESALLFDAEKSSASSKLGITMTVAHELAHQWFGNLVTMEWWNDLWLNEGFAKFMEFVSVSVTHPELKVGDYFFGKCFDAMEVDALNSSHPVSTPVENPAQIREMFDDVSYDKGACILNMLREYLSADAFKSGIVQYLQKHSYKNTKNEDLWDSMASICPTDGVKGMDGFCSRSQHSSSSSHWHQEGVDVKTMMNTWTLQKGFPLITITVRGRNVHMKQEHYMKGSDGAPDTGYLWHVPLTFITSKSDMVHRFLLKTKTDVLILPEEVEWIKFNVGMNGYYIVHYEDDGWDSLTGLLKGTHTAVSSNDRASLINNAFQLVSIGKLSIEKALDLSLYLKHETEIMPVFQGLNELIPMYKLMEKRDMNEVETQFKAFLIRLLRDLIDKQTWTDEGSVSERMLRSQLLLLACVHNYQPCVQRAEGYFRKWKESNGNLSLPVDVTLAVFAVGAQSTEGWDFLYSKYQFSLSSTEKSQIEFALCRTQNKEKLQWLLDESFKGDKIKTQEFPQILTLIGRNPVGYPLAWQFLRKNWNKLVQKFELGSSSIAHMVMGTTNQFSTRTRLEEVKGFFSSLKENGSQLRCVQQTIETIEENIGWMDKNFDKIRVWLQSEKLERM

BHK-21 = assay: viability loss in BHK-21 cells – cell-based, plate reader, cherry-pick samples, cytotoxicity control, dose response (AID 687030); assay type: functional; settings: Mesocricetus auratus
[25] = blockers of FN fibrillogenesis by fibroblasts – AH1F cells, Alexa488-FN fluorescence, cherry-picks, dose response (AID 1035475); assay type: functional, cell-based
[26] = viability loss in HepG2 hepatoma cells – cell-based, ATP luminescence, cherry-pick, activator set 2, cytotoxicity control, dose response (AID 1053143); assay type: functional
[27] = disruptors of Keap1 Kelch-Nrf2 peptide binding – biochemical, fluorescence polarization, dry powder, set 2, dose response (AID 651801)
[28] = disruptors of Keap1 Kelch-Nrf2 peptide binding – biochemical, fluorescence polarization, dry powder samples, dose response (AID 651798)
[29] = molecular target: Metabotropic glutamate receptor 3 (Rattus norvegicus, UniProt P31422); assay: inhibition of rat mGlu3 glutamate signaling – HEK/GIRK cells, thallium flux, dose response (AID 651839); assay type: functional
HeLa = assay: viability loss in HeLa cells – cell-based, ATP luminescence, cherry-pick samples, cytotoxicity control, dose response (AID 687004); assay type: functional; settings: Homo sapiens
HEK293 = assay: viability loss in HEK293T cells – cell-based, ATP luminescence, cherry-pick samples, cytotoxicity control, dose response (AID 687005); assay type: functional; settings: Homo sapiens;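 also: cells exposed to compound for 48 hours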
[30] = HEK293 Cytotoxicity Assay Measured in Cell-Based System Using Plate Reader - 7071-01_Inhibitor_Dose_CherryPick_Activity_Set2.; assay type: functional
[31] = Cytotoxicity screening for potential Inhibitors of Bacterial Capsule Biogenesis (4).; assay type: functional
[32] = A549 cell cytotoxicity, dose response, cytotoxicity control, plate reader, cherry-pick, antagonist series (AID 743412); assay type: functional, cell-based
[33] = inhibition of bursicon-driven LGR2 cAMP signaling – cell-based, HEK293, CRE-luciferase reporter, cherry pick, dose response (AID 743342); assay type: functional

Chain of Kappa-type opioid receptor (P41145 whole entry): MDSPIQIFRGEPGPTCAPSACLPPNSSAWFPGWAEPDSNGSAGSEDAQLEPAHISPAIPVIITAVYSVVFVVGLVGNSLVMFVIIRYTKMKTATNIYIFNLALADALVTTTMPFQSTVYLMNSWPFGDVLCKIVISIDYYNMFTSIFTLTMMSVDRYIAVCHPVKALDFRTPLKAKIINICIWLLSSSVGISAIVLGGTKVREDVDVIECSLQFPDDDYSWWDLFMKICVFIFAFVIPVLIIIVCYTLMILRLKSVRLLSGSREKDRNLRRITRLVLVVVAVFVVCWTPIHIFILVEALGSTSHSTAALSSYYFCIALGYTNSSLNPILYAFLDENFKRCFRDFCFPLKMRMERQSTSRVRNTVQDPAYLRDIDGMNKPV

COC(=O)c1cc(-c2ccc(OC)cc2)c(-c2ccc(OC)cc2)s1
IC50 [1]: 1.58 µM (active)
IC50 (Mu-type opioid receptor): > 50 µM (inactive)
IC50 [2]: 19.8 µM (inactive)
IC50 [3]: > 50 µM (inactive)

CN(CCCC(=O)O)c1ccc(N=Nc2ccc([N+](=O)[O-])cc2)cc1
IC50 (Nonstructural protein 1): 9.48 µM (active)
IC50 [4]: 18.9 µM (active)

CCCCCc1c(-c2ccccc2OC)ncn1CCc1ccccc1OC
AC50 (Vero): 3.91 µM (active)
AC50 (A549): 13.9 µM (active)
AC50 (Paired box protein Pax-8): 24.9 µM (active)

COc1ccccc1NC(=O)N1CCCCN2[C@@H](CO)[C@H](c3ccc(-c4cccc(C#N)c4)cc3)[C@@H]2C1
AC50 [5]: 918 nM (active)

CN1CCSc2ccc(C(=O)Nc3ccc(Cl)cc3)cc21
EC50 [6]: 208 nM (active)
EC50 [7]: 148 nM (active)
EC50 (H4): 101 nM (active)
EC50 [8]: 366 nM (active)
IC50 [9]: 8.59 µM (active)
IC50 [10]: 9.21 µM (active)
EC50 [11]: 321 nM (active)
IC50 [12]: > 1.11 µM (active)

[O-][n+]1onc2c1CCc1c-2nn(-c2ccccc2)[n+]1[O-]
AC50 (Caspase-6): 22.9 µM (active)

O=C(O)[C@H]1CCCC[C@H]1C(=O)N1CCc2ccccc2[C@H]1CNS(=O)(=O)c1ccc([N+](=O)[O-])cc1
AC50 [13]: 88.3 µM (active)

Cc1cc(N(CCO)CCO)ccc1N=Nc1cc(F)ccc1F
IC50 (Nonstructural protein 1): 19.2 µM (active)
IC50 [14]: 31.6 µM (inactive)

CCCOc1ccc(S(=O)(=O)NCc2ccncc2)c2ccccc12
AC50 [15]: > 70 µM (inactive)

CN1CCN(Cc2c(O)c(Cl)cc3c(-c4ccccc4)cc(=O)oc23)CC1
EC50 (Kallikrein-7): 68.3 µM (inactive)
EC50 [16]: > 286 nM (active)

COc1ccccc1C#Cc1ccc2c(c1)O[C@H](CN(C)Cc1cccnc1)[C@H](C)CN([C@@H](C)CO)S2(=O)=O
AbsAC35 [17]: 38.33 µM
AC50 (Paired box protein Pax-8): 7.51 µM (active)
AC50 [18]: 21.4 µM (active)
AC50 [19]: 32.2 µM (active)

CC(=O)N(C)C[C@@H]1Oc2cc(C#Cc3ccc(F)cc3)ccc2S(=O)(=O)N([C@H](C)CO)C[C@H]1C
AbsAC35 [20]: 109.84 µM
AbsAC35 [21]: 57.53 µM

CCOc1ccccc1NC(=O)c1cccc(NC(=O)C2CCCCC2)c1
IC50 [22]: 1.3 µM (active)
IC50 [23]: 67 nM (active)

CCc1c(C)c2cc(Cl)c(O)c(CN(C)C)c2oc1=O
AC50 [24]: 5.35 µM (active)

COc1ccc2c3c([nH]c2c1)[C@H](CO)N(C(=O)Nc1cccc(F)c1)CC31CN(S(=O)(=O)c2ccccc2)C1
AC50 (BHK-21): 34.1 µM (active)

N#Cc1ccc(-c2ccc3c(c2)[C@@H]2[C@@H](CCN2S(=O)(=O)c2ccccc2F)[C@H](CO)N3)cc1
AC50 [25]: 24.5 µM (active)

Cc1c(Cl)ccc2sc(NC(=O)c3ccco3)nc12
AC50 [26]: 17.4 µM (active)

Cc1cccn2c(=O)c3cc(C(N)=S)c(=N)n(CCCOC(C)C)c3nc12
AC50 (cells): 626 nM (active)

O=C(O)C1CCCCC1C(=O)N1CCc2ccccc2C1CN1C(=O)c2ccccc2S1(=O)=O (configuration not stated)
AC50 [27]: 78.9 µM (active)
AC50 [28]: 71.1 µM (active)

Cc1cc2cc(C#Cc3ccc(C(=O)N4CCCC(CO)C4)cc3)ccc2o1 (configuration not stated)
IC50 [29]: 3.91 µM

COCCNC(=O)C[C@H]1C=C[C@@H](NS(=O)(=O)c2ccc(C)cc2)[C@H](CO)O1
AC50 (HeLa): 19.9 µM (active)
AC50 (HEK293): 23.9 µM (active)
AC50 [30]: 23.9 µM (active)

CC(C)(C)OC(=O)Nc1nc2ccc(C(=O)Nc3ccnc(F)c3)cc2s1
CC50 [31]: > 300 µM (inactive)

C[C@H](CO)N1C[C@H](C)[C@H](CN(C)C(=O)Nc2ccc(F)cc2)OCCCC[C@H](C)Oc2ccc(NC(=O)Nc3ccc(F)cc3)cc2C1=O
AC50 [32]: > 47 µM (inactive)
AC50 [33]: 16.1 µM (active)
